`CC1(C)CON(Cc2ccc(N3C(=O)c4ccccc4C3=O)cc2Br)C1=O`: the melting point was 158 to 159 °C.

Regarding `CNC(=O)c1ccccc1Nc1nc(Nc2cc3c(cc2OC)N(C)C(=O)OCC3)ncc1C(F)(F)F`, the melting point fell in the range of 210 to 212 °C. With `CCOC(=O)C(CC)CCc1cc(-c2ccccc2)nc2ccccc12` (centres undefined) the figure was 76 °C; with `COc1c(C)cc(-c2[nH]c3ccc(NS(=O)(=O)c4ccc(C)cc4)cc3c2C)cc1C`, 192 to 194 °C; with `NCCc1ccc(-c2ccc(O)cc2)cc1`, > 350 °C. The result for `COC(=O)c1cc2sccc2s1` reads 96 to 97 °C; that for `CS(=O)(=O)CCNC(=O)c1cccc(-c2ccc3c(c2)C(c2ccc(Cl)cc2Cl)CC3)c1` (centres undefined), 193 to 194 °C. The result for `Clc1cc2c(cc1Cl)CC=C2` reads 76 °C. The molecule `CC(=O)N(C)c1cccc(-c2ccnc3c(C(=O)c4ccco4)cnn23)c1` registered a melting point of 210 to 212 °C. `O=C(O)CCC(=O)c1ccc(NC(=O)c2ccccc2F)cc1` showed a melting point of 191 to 193 °C.

As to `O=C(NO)c1cnc(N2CCC(CNS(=O)(=O)c3ccc(C(=O)Nc4ccc(Cl)c(-c5ccccn5)c4)c(Cl)c3)CC2)nc1`, the melting point is 172 to 173 °C. The result for `C[C@@H]1CN(c2c(F)c(N)c3c(=O)c(C(=O)O)cn(C4CC4)c3c2F)C[C@H]1N` (relative stereo) reads 234 to 236 °C; that for `N#Cc1ccc(NC(=O)NC(=O)c2ccccc2F)c(Cl)c1Cl`, 298 to 300 °C. With `CCOCCNc1nc(C)c(CCO)c(=O)n1C`, the melting point came out at 194 °C.

`Oc1ccc(Br)cc1C=Nc1cc(Cl)cc(Cl)c1` displayed a melting point of 161 to 163 °C. `CC(C)n1nc2ccc(Cl)c([N+](=O)[O-])c2n1`: the melting point is 67 to 70 °C. As to `COc1ccc(-c2cc3c(n2-c2ccc(O)c(C(=O)O)c2)CCCC3)cc1`, the melting point fell in the range of 219 to 221 °C.

In turn, `Cc1c(CC(F)(F)C(F)(F)C(F)(F)F)c(-c2ccc(S(N)(=O)=O)cc2)c2n1CCC2` showed a melting point of 221 °C.

The molecule `CC1(c2ccc(O)cc2)Cc2cc(OCC(=O)O)c(Cl)c(Cl)c2C1=O` (centres undefined) had a melting point of 220 to 222 °C. `CCCC1(CCC)c2ccccc2-c2ccc(O)cc21` gave a melting point of 116 to 117 °C.

Turning to `C=C(C)c1ccccc1S(N)(=O)=O`, the melting point lay within 76 to 85 °C.

With `CCOc1ccc2c(c1)n(C(C)(C)CC(C)(C)C)c(=O)n2S(=O)(=O)c1ccc([N+](=O)[O-])cc1OC`, the melting point turned out to be 158 °C. With `Cc1ccc2c(c1)[C@@H]1CN(C)CC[C@@H]1CC2=O` (relative stereo) the figure was > 250 °C; with `CC[C@@H](CNc1ccc(C)cc1C)NS(=O)(=O)c1c(N)cc(Cl)cc1Cl`, 151 °C. With `COc1nc(C(F)(F)C(F)(F)F)c(F)c(=O)n1-c1cc(C(=O)OC(C)C)c(Cl)cc1F` the figure was 75 to 77 °C; with `Cc1nccc(-c2cccc(S(=O)(=O)n3c(CCCC(=O)O)cc4nc(Cl)ccc43)c2)n1`, 178 to 188 °C; with `CC1(C)COC(=O)N1c1nc(-c2ccc(Br)cc2)cs1`, 165 to 167 °C. With `CC(=O)NCC1CN(c2ccc(N3CCC(O)C(C)(C)C3)c(F)c2)C(=O)O1` (centres undefined) the figure was 70 to 72 °C. In turn, `O=C1NC(=O)C(Cc2ccccc2)C(=O)N1` displayed a melting point of 207 to 209 °C. The result for `CC1(C)CNc2nc(-c3ccncc3)cc(=O)n2C1` reads 152 to 154 °C. With `CCOC(C)O[C@H]1C(=O)N(C(=O)OC(C)(C)C)[C@H]1c1ccccc1` (some centres undefined) the figure was 90 to 91 °C; with `c1ccc2c(c1)OCC(CN1CCC(CNc3nc4ccccc4s3)CC1)O2` (centres undefined), 133 °C; with `O=C(c1ccccc1)c1cc(Cl)cc2c1S(=O)(=O)CC2C(=O)O` (centres undefined), 158 to 161 °C. `Cc1nn(-c2cc(Oc3ccc(N)cc3Cl)c(Cl)cc2Cl)c(=O)n1C(F)F` had a melting point of 161 to 162 °C. With `FC(F)(F)c1ccc(-c2cc(Cl)c3ccccc3n2)cc1` the figure was 53 to 55 °C; with `CN(C)C1(c2ccccc2)CCC(CNC(=O)NCCc2c[nH]c3ccc(F)cc23)CC1` (centres undefined), 70 to 73 °C.

`N#Cc1cn2c(nc1=O)CCCCC2` gave a melting point of 205 to 206 °C. With `COCc1cc(-c2nnc3c4ccccc4c(OCc4ncn(C)n4)nn23)no1` the figure was 236 °C. `Cn1c(=O)n(S(=O)(=O)c2ccc(Cl)cc2)c(=O)c2ccc(Cl)cc21` gave a melting point of 205 to 208 °C. The result for `CCn1nc(-c2ccccc2)c(C(C)=O)c(Nc2cc(C)no2)c1=O` reads 178 to 179 °C. The result for `CC(=O)Nc1ccccc1N1CCOCC1` reads 140 to 141 °C. The result for `O=C(CC1CC1)Nc1c(C(=O)c2ccccc2)[nH]c2cc(Cl)ccc12` reads 72 to 75 °C.

With `O=C(CCCCCCc1ccccc1)Oc1cc(=O)n(-c2ccccc2)c2ncccc12`, the melting point is 139 to 140 °C. With `Cc1ccc(-c2cncc(OC3SCC(O)C(O)C3O)c2)o1` (centres undefined) the figure was 188 °C; with `CCCc1ccc(NC(=O)c2cccnc2NCc2ccncc2)cc1C(F)(F)F`, 147 to 149 °C. With `CCNC(=O)c1cc(NS(=O)(=O)c2ccc(C(F)(F)F)cn2)ccc1Oc1cncc(Cl)c1` the figure was 147 to 148 °C; with `CSCCN1CSC(=Cc2cc(C(C)(C)C)c(O)c(C(C)(C)C)c2)C1=O`, 166 to 168 °C. The molecule `Cc1ccccc1C(=O)Nc1cccc(OCc2ccccc2)c1` came in with a melting point of 114 to 115 °C. The result for `CN1C(=O)C(C(=O)Nc2cccc(F)c2)S(=O)(=O)c2ccccc21` (centres undefined) reads 206 to 208 °C; that for `CCOC(=O)C(NC(=O)c1ccc(C)cc1)C(=O)OCC`, 98 to 99 °C. With `COc1cc2[nH]c(N(C)Cc3cccc(C4CCN(C)CC4)c3)nc(=O)c2c(C)c1OC` the figure was 156 to 158 °C; with `COC(=O)CC(c1ccc(OC)c(OC)c1)N1C(=O)C2CCCCC2C1=O` (centres undefined), 92.5 to 95 °C; with `Oc1ccc(-c2nn(C3CCC3)c3c(C(F)(F)F)cccc23)c(O)c1`, 124 to 125 °C. The result for `O=c1c(O)c(-c2nnc(Cc3ccc(F)cc3)o2)[nH]c2ccccc12` reads > 300 °C. `CC(=O)Nc1ccc(SC2SCC(OC(C)=O)C(OC(C)=O)C2OC(C)=O)cc1` (centres undefined) gave a melting point of 168 to 174 °C. With `O=C1Nc2ccccc2C1C(=O)c1cccnc1` (centres undefined) the figure was 169 to 170 °C; with `NC(CCO)C(=O)Nc1ccc(Cl)cc1Cl` (centres undefined), 89 to 91 °C; with `N#CC1(O)CCN(c2ncccc2F)CC1`, 76 to 78 °C. The result for `O=c1[nH]cnc2cccc(Br)c12` reads 239 to 240 °C; that for `O=C(NCCO)c1cccc(-c2cccc3nn(Cc4cccc(C(F)(F)F)c4)cc23)n1`, 150 to 151 °C. `N#CC1(CCNC(=O)C(Cl)Cl)CCCCC1` came in with a melting point of 109 to 114 °C. The result for `O=C(c1ccccc1Nc1ccc(O)cc1)N1CCOCC1` reads 214 to 216 °C; that for `Cc1ccc(S(N)(=O)=O)cc1-c1nc(C(F)(F)F)oc1-c1ccccc1`, 150 to 151 °C; that for `N#Cc1ccc(CCn2ccn([C@H]3CCc4c(F)cc(F)cc4C3)c2=S)cc1`, 130 to 133 °C. `COc1ccc(-n2cnc3c(OC)nc4ccccc4c32)cc1` displayed a melting point of 180 to 182 °C. For `COC1CCC2C3CCC4CC(Cl)CCC4(C)C3CCC12C` (centres undefined), the melting point is 151 to 154 °C. The result for `COc1c(F)cc(Cn2cc[nH]c2=S)cc1F` reads 156 to 158 °C; that for `COc1cc(Cn2ccc3ncnc-3c2)ccc1C(=O)N(C1CCCC1)C1CC(C)CC(C)C1` (centres undefined), 218 to 220 °C. The result for `O=C1OC(CNC(=S)C(F)F)CN1c1ccc(N2CCOCC2)c(F)c1` (centres undefined) reads 125 to 127 °C. With `CCCCc1c(C(=O)O)ccc2c(OC)cccc12` the figure was 154 to 155 °C; with `C#CC1(NC(=O)C(CCN2CCN(c3ccccc3OC)CC2)c2ccccc2)CCCCC1` (centres undefined), 127 to 129 °C; with `CN1CCC(C2(O)c3ccccc3CCn3cc(-c4ccccc4)nc32)CC1` (centres undefined), 225 °C. The molecule `CN(C)C(=O)N1C[C@@H](O)[C@H](Oc2ccc(Cl)cc2)C1` (relative stereo) displayed a melting point of 137 to 142 °C. With `CCCCCCCCCCCCn1nnnc1Cc1ccccc1` the figure was 50 to 51 °C; with `CCn1c(=O)[nH]c2cc(NC(C)=O)ccc21`, 247 to 249 °C; with `O=C(O)CCC(=O)c1cccc(-n2ccnc2)c1`, 140 to 142 °C. With `CCOC(=O)c1cn(Cc2ccc(OCc3nc(-c4ccco4)oc3C)cc2)nc1OCc1ccc(OCc2nc(-c3ccco3)oc2C)cc1` the figure was 133 to 134 °C; with `CCc1nn(Cc2n[nH]c(=O)o2)c(CC)c1Oc1cc(Cl)cc(Cl)c1`, 138 to 142 °C. The result for `CCOc1c(NCCP(=O)(OCC)OCC)c(=O)c1=O` reads 66 to 68 °C; that for `COc1ccc(N(C(=O)CN2C(=O)c3ccccc3C2=O)c2ccccc2)cc1`, 192 °C. The molecule `COC(=O)c1nc(Br)c(F)c(N)c1Cl` had a melting point of 119 to 120 °C. The result for `CC(=O)OCCCNC(=O)CCC(NC(=O)C=Cc1ccco1)C(=O)NCCCOC(C)=O` (centres undefined) reads 132 to 134 °C.

Molecule `CCCc1nn(C)c2c(=S)[nH]c(-c3ccccc3OCC)nc12` showed a melting point of 156 to 158 °C. For the molecule `CC(=O)NC(=CC(C)C)c1ccccc1N1CCCCC1`, the melting point lay in the range of 140 to 143 °C. As for `NC(=O)c1ccc(C(Cc2ccc(F)cc2)C(=O)Nc2nc3ccccc3o2)cc1` (centres undefined), the melting point was 137 to 139 °C. With `O=C(Nc1cc(C2CC2)n[nH]1)c1ccccc1` the figure was 234 °C. The result for `COc1ccc(C(=O)Nc2ccc3ccc(Oc4ccccc4C)nc3n2)cc1` reads 153 °C; that for `COc1ccc(Cc2ccc(C(=O)O)cc2)cc1`, 152 to 153 °C. Molecule `CN(Cc1ccc(NC(=O)C2=Cc3cc(-c4ccc(OCC(N)=O)cc4)ccc3S(=O)(=O)CC2)cc1)C1CCOCC1` came in with a melting point of 240 to 243 °C.

The values are drawn from a melting point compilation (Tetko et al.; mined from patent text by program, amines drawn as free bases though some values may be those of a salt).
